# Source: patent publication US10604794B2, “Method to measure the shortest telomeres” (The Board of Regents of The University of Texas System, priority 2017, dated 2020)
# What was measured:
# H2087 cells [1] = assay: TRF analysis of telomere length in H2087 cells under long-term imetelstat treatment; format: cell-based; details: 1 μM imetelstat 3 times per week, 10 and 18 weeks treatment
# Procedure: (§1) FIGS. 2A-2C. Measuring TL in long-term telomerase inhibition with imetelstat (1 μM) treatment and after a removal of drug in H2087 cells. (2A) Isolated DNA from H2087 cells with 1 μM imetelstat treatment for 0, 10 and 18 weeks, and post released from 18 weeks for 1, 2, 3, 4, and 5 weeks was digested with the same REs for TeSLA (BfaI/CviAII/MseI/NdeI) and then separated with 0.7% agarose gel for TRF analysis. (2B) Interphase Q-FISH; cells from H2087 with 0, and 18 weeks 1 μM imetelstat treatment, and 5 weeks after drug removal were used to measure TL by Q-FISH. The results were quantified using TFL-Telo software (n: numbers of nuclei were quantified for each time point as indicated above). (2C) Results of TeSLA using DNA as indicated. Four TeSLA reactions (30 pg of each reaction) were performed for each DNA sample.
# (§2) To further examine the utility of TeSLA in studying telomere dynamics, the inventors evaluated TL dynamics in a telomerase positive non-small cell lung cancer (NSCLC) cell line (H2087). These cells were subjected to long-term telomerase inhibition treatment and then released to observe the dynamic of telomere re-elongation. The results were compared using TeSLA, TRF and telomere Q-FISH. […] In contrast, TeSLA is able to detect TL in both imetelstat treated cells and cells post released from drug in a much more quantitative manner (FIG. 2C). […]
# NSCLC cell lines = details: long-term treatment, multiple NSCLC cell lines; cited from earlier work
# telomerase = details: binds to the active site of telomerase RNA; cited from earlier work
# H2087 cells [2] = assay: Interphase Q-FISH telomere length in H2087 cells under long-term imetelstat treatment; format: cell-based; details: 1 μM imetelstat, 18 weeks treatment compared to 0 weeks and 5 weeks after drug removal
# Procedure: as §1, §2
substance,measurement,setting,value
imetelstat,average TL change by TRF analysis,H2087 cells [1],average TL shortening
same,average TL change,NSCLC cell lines,shorten average TL
same,telomerase activity,telomerase,robustly inhibits telomerase activity
same,telomere signals by Q-FISH,H2087 cells [2],only a few telomere signals with relatively low intensity were detected
